Measurements reported in PMC11864979, “First-in-class ultralong-target-residence-time p38α inhibitors as a mitosis-targeted therapy for colorectal cancer” (Nature Cancer, 2025).
Where two headings read alike, the source gives them in different places.

Key:
Assay in all cases: selectivity profiling in a panel of 340 wild-type kinases (Reaction Biology Europe)
Format in all cases: binding
340 wild-type kinases [1] = target: T1, 340 wild-type kinases (Homo sapiens, UniProt Q02763)
T1 construct: purchased Reaction Biology Europe

340 wild-type kinases [2] = target: T2, 340 wild-type kinases (Homo sapiens, UniProt P22455)
T2 construct: purchased Reaction Biology Europe

340 wild-type kinases [3] = target: T3, 340 wild-type kinases (Homo sapiens, UniProt P52564, S207D/T211D)
T3 construct: purchased Reaction Biology Europe
T3 sequence (P52564 1-334 S207D/T211D): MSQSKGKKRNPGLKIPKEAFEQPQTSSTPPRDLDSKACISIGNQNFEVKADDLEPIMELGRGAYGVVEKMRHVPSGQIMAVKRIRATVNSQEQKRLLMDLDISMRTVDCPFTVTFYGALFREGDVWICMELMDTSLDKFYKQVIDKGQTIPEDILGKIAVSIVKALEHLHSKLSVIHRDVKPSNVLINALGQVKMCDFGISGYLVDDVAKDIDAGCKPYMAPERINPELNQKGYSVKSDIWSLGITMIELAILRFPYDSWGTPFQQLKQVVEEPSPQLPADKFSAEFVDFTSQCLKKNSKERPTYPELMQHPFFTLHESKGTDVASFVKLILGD

340 wild-type kinases [4] = target: T4, 340 wild-type kinases (Homo sapiens, UniProt P29376)
T4 construct: purchased Reaction Biology Europe

340 wild-type kinases [5] = target: T5, 340 wild-type kinases (Homo sapiens, UniProt P43403)
T5 construct: purchased Reaction Biology Europe
T5 sequence (P43403 1-619): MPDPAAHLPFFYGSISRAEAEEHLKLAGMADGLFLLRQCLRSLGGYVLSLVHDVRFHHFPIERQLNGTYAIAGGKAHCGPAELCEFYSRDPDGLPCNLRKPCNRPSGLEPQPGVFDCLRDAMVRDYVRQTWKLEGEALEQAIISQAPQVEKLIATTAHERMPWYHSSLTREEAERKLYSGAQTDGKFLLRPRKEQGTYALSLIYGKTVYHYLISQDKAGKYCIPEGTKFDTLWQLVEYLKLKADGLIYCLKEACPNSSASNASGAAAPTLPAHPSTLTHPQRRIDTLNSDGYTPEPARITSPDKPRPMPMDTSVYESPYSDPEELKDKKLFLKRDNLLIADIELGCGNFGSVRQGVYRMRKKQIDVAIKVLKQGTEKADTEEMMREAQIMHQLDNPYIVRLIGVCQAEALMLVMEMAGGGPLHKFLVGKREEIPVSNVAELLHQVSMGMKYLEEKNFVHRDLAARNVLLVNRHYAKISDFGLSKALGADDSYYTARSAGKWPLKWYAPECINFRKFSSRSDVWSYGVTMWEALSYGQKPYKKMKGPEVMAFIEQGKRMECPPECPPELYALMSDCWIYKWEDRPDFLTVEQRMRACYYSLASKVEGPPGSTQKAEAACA

340 wild-type kinases [6] = target: T6, 340 wild-type kinases (Homo sapiens, UniProt P53779)
T6 construct: purchased Reaction Biology Europe

340 wild-type kinases [7] = target: T7, 340 wild-type kinases (Homo sapiens, UniProt Q9UM73)
T7 construct: purchased Reaction Biology Europe

340 wild-type kinases [8] = target: T8, 340 wild-type kinases (Homo sapiens, UniProt Q9NYY3)
T8 construct: purchased Reaction Biology Europe

340 wild-type kinases [9] = target: T9, 340 wild-type kinases (Homo sapiens, UniProt Q16644)
T9 construct: purchased Reaction Biology Europe

340 wild-type kinases [10] = target: T10, 340 wild-type kinases (Homo sapiens, UniProt Q8TDX7)
T10 construct: purchased Reaction Biology Europe
T10 sequence (Q8TDX7 whole entry): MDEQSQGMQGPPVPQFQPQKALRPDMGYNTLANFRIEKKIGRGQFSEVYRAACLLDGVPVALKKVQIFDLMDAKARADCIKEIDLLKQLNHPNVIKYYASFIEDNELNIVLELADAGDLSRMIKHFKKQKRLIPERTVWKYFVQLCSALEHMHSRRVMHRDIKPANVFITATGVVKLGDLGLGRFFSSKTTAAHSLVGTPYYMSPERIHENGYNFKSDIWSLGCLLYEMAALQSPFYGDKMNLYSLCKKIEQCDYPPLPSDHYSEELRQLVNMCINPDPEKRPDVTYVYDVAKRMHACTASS

T9 sequence (Q16644 whole entry): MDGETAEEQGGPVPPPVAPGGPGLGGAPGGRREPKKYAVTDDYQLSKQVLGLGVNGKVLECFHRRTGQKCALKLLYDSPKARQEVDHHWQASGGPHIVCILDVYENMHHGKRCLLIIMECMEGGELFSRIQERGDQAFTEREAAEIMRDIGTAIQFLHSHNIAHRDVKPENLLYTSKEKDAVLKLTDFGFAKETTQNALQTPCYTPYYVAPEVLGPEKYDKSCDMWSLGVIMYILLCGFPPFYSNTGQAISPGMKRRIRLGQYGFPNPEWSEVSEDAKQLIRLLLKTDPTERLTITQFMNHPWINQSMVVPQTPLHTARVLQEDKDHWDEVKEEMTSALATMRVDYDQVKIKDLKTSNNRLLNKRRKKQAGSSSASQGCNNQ
T8 sequence (Q9NYY3 whole entry): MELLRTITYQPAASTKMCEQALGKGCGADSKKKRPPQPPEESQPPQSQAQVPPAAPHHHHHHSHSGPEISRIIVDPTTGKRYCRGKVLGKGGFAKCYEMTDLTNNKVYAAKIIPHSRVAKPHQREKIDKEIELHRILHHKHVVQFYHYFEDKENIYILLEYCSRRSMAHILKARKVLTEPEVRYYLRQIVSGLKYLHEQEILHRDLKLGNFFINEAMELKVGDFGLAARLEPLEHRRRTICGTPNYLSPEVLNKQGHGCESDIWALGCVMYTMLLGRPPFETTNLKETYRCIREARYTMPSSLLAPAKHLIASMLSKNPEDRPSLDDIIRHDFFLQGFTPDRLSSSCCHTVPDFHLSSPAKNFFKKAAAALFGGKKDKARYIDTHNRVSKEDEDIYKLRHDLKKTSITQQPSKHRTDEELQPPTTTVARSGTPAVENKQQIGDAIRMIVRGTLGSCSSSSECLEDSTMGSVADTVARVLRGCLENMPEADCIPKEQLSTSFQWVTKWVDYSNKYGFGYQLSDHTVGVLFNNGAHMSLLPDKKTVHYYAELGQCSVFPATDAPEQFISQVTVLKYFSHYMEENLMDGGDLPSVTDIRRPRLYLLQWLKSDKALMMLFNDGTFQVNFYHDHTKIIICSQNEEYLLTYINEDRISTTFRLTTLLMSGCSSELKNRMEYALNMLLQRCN
T2 sequence (P22455 22-802): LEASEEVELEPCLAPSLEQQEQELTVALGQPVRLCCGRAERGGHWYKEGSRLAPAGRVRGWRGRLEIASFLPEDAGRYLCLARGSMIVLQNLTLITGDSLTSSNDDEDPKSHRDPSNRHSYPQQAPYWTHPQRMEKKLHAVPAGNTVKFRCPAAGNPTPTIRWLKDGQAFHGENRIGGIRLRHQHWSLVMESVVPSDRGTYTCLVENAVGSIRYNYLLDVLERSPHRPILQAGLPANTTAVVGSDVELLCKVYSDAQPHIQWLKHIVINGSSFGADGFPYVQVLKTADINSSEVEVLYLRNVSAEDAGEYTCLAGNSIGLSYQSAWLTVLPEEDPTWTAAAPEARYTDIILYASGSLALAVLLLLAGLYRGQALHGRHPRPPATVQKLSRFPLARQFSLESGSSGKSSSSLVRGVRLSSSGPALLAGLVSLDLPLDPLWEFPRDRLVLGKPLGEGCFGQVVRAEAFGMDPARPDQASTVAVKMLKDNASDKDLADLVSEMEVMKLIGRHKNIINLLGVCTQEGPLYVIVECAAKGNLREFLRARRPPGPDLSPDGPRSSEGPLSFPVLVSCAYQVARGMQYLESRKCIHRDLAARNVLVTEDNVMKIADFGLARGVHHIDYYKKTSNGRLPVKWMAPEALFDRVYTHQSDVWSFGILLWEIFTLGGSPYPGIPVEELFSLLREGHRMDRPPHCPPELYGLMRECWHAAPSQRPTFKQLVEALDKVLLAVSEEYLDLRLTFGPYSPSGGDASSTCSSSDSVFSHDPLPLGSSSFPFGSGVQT
T7 sequence (Q9UM73 19-1620): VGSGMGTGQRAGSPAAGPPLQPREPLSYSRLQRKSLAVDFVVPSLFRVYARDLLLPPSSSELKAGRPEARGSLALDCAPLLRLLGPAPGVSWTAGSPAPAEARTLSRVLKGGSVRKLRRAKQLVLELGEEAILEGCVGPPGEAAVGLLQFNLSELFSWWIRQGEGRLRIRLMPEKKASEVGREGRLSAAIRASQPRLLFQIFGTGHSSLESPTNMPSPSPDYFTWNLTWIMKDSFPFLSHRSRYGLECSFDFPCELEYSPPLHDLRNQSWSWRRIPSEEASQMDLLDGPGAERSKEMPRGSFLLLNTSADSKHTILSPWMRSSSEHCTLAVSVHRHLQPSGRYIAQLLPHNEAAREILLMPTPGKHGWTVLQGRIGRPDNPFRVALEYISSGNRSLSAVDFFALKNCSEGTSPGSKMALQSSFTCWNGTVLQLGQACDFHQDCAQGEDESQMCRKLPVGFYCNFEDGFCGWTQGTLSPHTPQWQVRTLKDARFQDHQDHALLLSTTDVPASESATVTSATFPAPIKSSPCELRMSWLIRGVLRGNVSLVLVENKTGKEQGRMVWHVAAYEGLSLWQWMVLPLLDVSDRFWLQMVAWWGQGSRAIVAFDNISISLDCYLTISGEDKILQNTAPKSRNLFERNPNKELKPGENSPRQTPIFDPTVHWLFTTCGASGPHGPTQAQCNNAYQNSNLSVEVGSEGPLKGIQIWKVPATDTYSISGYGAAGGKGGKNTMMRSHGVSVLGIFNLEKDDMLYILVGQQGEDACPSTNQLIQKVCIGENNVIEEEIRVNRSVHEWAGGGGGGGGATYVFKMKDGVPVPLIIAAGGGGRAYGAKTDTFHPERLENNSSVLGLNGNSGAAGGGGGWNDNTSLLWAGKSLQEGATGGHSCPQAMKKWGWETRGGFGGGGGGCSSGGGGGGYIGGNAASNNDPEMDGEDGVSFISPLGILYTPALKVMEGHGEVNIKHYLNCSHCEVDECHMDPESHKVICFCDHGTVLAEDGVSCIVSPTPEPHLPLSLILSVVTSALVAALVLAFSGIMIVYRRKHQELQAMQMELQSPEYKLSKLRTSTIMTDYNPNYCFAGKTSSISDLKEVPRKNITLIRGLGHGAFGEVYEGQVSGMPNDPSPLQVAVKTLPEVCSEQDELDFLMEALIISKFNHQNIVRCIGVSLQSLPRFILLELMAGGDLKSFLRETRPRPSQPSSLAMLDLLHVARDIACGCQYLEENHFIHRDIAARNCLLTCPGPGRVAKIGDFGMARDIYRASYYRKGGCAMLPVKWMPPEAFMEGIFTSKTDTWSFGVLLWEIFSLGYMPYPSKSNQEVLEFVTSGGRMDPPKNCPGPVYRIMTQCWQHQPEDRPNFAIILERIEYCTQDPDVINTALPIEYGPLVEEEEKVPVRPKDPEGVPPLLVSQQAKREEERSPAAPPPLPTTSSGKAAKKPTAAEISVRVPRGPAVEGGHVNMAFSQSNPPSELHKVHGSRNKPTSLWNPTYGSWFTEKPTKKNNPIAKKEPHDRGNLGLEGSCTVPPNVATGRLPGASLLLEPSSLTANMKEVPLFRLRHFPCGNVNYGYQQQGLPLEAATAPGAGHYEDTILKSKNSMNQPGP
T4 sequence (P29376 17-864): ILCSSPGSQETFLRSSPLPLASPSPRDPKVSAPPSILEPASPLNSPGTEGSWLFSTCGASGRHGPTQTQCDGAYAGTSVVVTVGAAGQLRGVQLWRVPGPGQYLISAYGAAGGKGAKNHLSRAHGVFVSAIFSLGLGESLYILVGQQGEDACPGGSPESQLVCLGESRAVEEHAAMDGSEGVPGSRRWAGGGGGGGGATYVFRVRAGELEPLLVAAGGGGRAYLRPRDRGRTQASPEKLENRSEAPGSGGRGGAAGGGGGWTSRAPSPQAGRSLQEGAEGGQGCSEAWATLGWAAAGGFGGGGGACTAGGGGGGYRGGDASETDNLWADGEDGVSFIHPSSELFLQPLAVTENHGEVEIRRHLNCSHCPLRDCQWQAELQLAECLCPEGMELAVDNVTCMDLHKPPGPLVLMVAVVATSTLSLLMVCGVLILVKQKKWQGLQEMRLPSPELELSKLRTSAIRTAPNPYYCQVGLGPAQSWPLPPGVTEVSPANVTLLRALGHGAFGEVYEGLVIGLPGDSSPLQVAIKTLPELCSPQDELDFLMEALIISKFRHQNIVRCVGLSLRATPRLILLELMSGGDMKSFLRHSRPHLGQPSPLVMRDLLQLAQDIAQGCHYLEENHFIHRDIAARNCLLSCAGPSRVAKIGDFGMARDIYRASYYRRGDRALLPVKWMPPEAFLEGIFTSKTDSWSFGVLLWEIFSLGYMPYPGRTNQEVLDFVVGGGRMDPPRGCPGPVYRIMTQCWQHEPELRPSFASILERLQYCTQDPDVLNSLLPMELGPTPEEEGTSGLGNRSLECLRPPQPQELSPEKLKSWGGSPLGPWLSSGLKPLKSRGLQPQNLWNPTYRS
T6 sequence (P53779 whole entry): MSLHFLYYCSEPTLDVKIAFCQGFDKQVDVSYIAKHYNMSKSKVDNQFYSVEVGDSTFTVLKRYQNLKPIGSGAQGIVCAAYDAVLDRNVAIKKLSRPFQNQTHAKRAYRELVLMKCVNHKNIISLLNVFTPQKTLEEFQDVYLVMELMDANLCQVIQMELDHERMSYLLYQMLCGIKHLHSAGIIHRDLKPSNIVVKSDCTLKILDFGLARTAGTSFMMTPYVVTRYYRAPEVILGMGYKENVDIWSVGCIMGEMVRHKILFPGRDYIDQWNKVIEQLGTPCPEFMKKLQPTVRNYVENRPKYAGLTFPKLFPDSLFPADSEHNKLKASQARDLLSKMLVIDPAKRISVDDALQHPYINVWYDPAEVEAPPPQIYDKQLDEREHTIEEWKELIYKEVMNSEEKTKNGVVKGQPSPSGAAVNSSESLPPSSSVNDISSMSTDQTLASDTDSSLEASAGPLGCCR

CNC(=O)c1ccc2c(c1)C(=O)c1ccc(Nc3ccc(F)c(NC(=O)C4CC4)c3)cc1CC2 [Compound 2015]
remaining activity at 0.2 µM (340 wild-type kinases [1]; 0.2 µM 2015, read-out: TIE2 residual activity): 120% | remaining activity at 1 µM (340 wild-type kinases [1]; 1 µM 2015, read-out: TIE2 residual activity): 90.4% | remaining activity at 0.2 µM (340 wild-type kinases [1]; TIE2, 0.2 µM, read-out: residual activity): 120% | remaining activity at 1 µM (340 wild-type kinases [1]; TIE2, 1 µM, read-out: residual activity): 90.5% | remaining activity at 0.2 µM (340 wild-type kinases [2]; 0.2 µM 2015, read-out: FGFR4 residual activity): 107% | remaining activity at 1 µM (340 wild-type kinases [2]; 1 µM 2015, read-out: FGFR4 residual activity): 95.9% | remaining activity at 0.2 µM (340 wild-type kinases [2]; FGFR4, 0.2 µM, read-out: residual activity): 107% | remaining activity at 1 µM (340 wild-type kinases [2]; FGFR4, 1 µM, read-out: residual activity): 95.9% | remaining activity at 0.2 µM (340 wild-type kinases [3]; 0.2 µM 2015, read-out: MKK6 SDTD residual activity): 83.9% | remaining activity at 1 µM (340 wild-type kinases [3]; 1 µM 2015, read-out: MKK6 SDTD residual activity): 111% | remaining activity at 0.2 µM (340 wild-type kinases [3]; MKK6 SDTD, 0.2 µM, read-out: residual activity): 83.9% | remaining activity at 1 µM (340 wild-type kinases [3]; MKK6 SDTD, 1 µM, read-out: residual activity): 111% | remaining activity at 0.2 µM (340 wild-type kinases [4]; 0.2 µM 2015, read-out: LTK residual activity): 100% | remaining activity at 1 µM (340 wild-type kinases [4]; 1 µM 2015, read-out: LTK residual activity): 99.3% | remaining activity at 0.2 µM (340 wild-type kinases [4]; LTK, 0.2 µM, read-out: residual activity): 100% | remaining activity at 1 µM (340 wild-type kinases [4]; LTK, 1 µM, read-out: residual activity): 99.3% | remaining activity at 0.2 µM (340 wild-type kinases [5]; 0.2 µM 2015, read-out: ZAP70 residual activity): 122% | remaining activity at 1 µM (340 wild-type kinases [5]; 1 µM 2015, read-out: ZAP70 residual activity): 100% | remaining activity at 0.2 µM (340 wild-type kinases [5]; ZAP70, 0.2 µM, read-out: residual activity): 122% | remaining activity at 1 µM (340 wild-type kinases [5]; ZAP70, 1 µM, read-out: residual activity): 100% | remaining activity at 0.2 µM (340 wild-type kinases [6]; 0.2 µM 2015, read-out: JNK3 residual activity): 90.9% | remaining activity at 1 µM (340 wild-type kinases [6]; 1 µM 2015, read-out: JNK3 residual activity): 100% | remaining activity at 0.2 µM (340 wild-type kinases [6]; JNK3, 0.2 µM, read-out: residual activity): 90.9% | remaining activity at 1 µM (340 wild-type kinases [6]; JNK3, 1 µM, read-out: residual activity): 100% | remaining activity at 0.2 µM (340 wild-type kinases [7]; 0.2 µM 2015, read-out: ALK residual activity): 95.3% | remaining activity at 1 µM (340 wild-type kinases [7]; 1 µM 2015, read-out: ALK residual activity): 86.8% | remaining activity at 0.2 µM (340 wild-type kinases [7]; ALK, 0.2 µM, read-out: residual activity): 95.3% | remaining activity at 1 µM (340 wild-type kinases [7]; ALK, 1 µM, read-out: residual activity): 86.8% | remaining activity at 0.2 µM (340 wild-type kinases [8]; 0.2 µM 2015, read-out: SNK residual activity): 103% | remaining activity at 1 µM (340 wild-type kinases [8]; 1 µM 2015, read-out: SNK residual activity): 97.3% | remaining activity at 0.2 µM (340 wild-type kinases [8]; SNK, 0.2 µM, read-out: residual activity): 103% | remaining activity at 1 µM (340 wild-type kinases [8]; SNK, 1 µM, read-out: residual activity): 97.3% | remaining activity at 0.2 µM (340 wild-type kinases [9]; 0.2 µM 2015, read-out: MAPKAPK3 residual activity): 97.3% | remaining activity at 1 µM (340 wild-type kinases [9]; 1 µM 2015, read-out: MAPKAPK3 residual activity): 86.1% | remaining activity at 0.2 µM (340 wild-type kinases [9]; MAPKAPK3, 0.2 µM, read-out: residual activity): 97.3% | remaining activity at 1 µM (340 wild-type kinases [9]; MAPKAPK3, 1 µM, read-out: residual activity): 86.1% | remaining activity at 0.2 µM (340 wild-type kinases [10]; 0.2 µM 2015, read-out: NEK7 residual activity): 119% | remaining activity at 1 µM (340 wild-type kinases [10]; 1 µM 2015, read-out: NEK7 residual activity): 110% | remaining activity at 0.2 µM (340 wild-type kinases [10]; NEK7, 0.2 µM, read-out: residual activity): 119%
